Reference: ChEMBL document CHEMBL3875230, “Structure-Guided Design of Novel, Potent, and Selective Macrocyclic Plasma Kallikrein Inhibitors” (ACS Med Chem Lett, 2017)

Legend:
Plasma kallikrein = Plasma kallikrein (Homo sapiens, UniProt P03952); experiment: Inhibition of human plasma kallikrein using D-Pro-Phe-Arg-pNA as substrate preincubated for 30 mins followed by substrate addition; format: cell-free
Prothrombin = Prothrombin (Homo sapiens, UniProt P00734); experiment: Inhibition of alpha-thrombin (unknown origin) using D-Phe-Pip-Arg-pNA as substrate preincubated for 30 mins followed by substrate addition
[1] = target: Tissue-type plasminogen activator (Homo sapiens, UniProt P00750); experiment: Inhibition of tPA (unknown origin) using Methylsulfonyl-D-Phe-Gly-Arg-pNA as substrate preincubated for 30 mins followed by substrate addition
Coagulation factor XI = Coagulation factor XI (Homo sapiens, UniProt P03951); experiment: Inhibition of factor 11a (unknown origin) using S-2366 as substrate incubated for 30 mins followed by substrate addition
[2] = Apparent permeability across MDCK cells at 1 uM; format: ADME, cell-based, Canis lupus familiaris; conditions: dog
Coagulation factor X = Coagulation factor X (Homo sapiens, UniProt P00742); experiment: Inhibition of factor 10a (unknown origin) using N-Z-D-Arg-Gly-Arg-pNA as substrate preincubated for 30 mins followed by substrate addition
[3] = Cmax in Sprague-Dawley rat plasma at 20 mg/kg administered via oral gavage measured up to 24 hrs by LC-MS/MS analysis; format: ADME, organism-based; design: dose 20 mg/kg, route oral
Plasminogen = Plasminogen (Homo sapiens, UniProt P00747); experiment: Inhibition of Lys-plasmin (unknown origin) using Tosyl-Gly-Pro-Lys-4-nitranilide as substrate preincubated for 30 mins followed by substrate addition
[4] = Oral bioavailability in Sprague-Dawley rat plasma at 20 mg/kg administered via gavage measured up to 24 hrs by LC-MS/MS analysis; format: ADME, organism-based
[5] = Half life in rat liver microsomes in presence of NADPH by LC/MS/MS analysis; format: ADME
[6] = Inhibition of bovine trypsin using S-2765 as substrate incubated for 30 mins followed by substrate addition; design: species or system Bos taurus
Coagulation factor XII = target: T1, Coagulation factor XII (Homo sapiens, UniProt P00748); experiment: Inhibition of factor 12a (unknown origin) using D-Pro-Phe-Arg-pNA as substrate preincubated for 30 mins followed by substrate addition
T1 sequence (P00748 whole entry): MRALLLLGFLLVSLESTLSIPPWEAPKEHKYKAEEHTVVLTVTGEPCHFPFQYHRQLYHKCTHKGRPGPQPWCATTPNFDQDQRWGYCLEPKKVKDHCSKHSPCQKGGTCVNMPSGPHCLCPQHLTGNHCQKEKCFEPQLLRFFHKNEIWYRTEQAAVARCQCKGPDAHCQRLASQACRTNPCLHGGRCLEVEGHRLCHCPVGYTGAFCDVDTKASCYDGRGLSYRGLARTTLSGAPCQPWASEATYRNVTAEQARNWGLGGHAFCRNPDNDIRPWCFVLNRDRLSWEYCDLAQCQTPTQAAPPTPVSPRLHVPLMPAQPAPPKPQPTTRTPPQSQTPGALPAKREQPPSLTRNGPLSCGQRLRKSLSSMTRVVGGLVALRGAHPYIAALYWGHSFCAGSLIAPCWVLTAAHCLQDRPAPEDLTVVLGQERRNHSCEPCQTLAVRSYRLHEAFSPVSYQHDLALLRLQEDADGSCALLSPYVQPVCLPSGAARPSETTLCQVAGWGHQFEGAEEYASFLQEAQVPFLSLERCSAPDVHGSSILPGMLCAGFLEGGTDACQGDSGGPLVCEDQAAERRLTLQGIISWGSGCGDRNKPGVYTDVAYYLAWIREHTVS

Sequence of Plasma kallikrein (P03952 20-390 limits assumed): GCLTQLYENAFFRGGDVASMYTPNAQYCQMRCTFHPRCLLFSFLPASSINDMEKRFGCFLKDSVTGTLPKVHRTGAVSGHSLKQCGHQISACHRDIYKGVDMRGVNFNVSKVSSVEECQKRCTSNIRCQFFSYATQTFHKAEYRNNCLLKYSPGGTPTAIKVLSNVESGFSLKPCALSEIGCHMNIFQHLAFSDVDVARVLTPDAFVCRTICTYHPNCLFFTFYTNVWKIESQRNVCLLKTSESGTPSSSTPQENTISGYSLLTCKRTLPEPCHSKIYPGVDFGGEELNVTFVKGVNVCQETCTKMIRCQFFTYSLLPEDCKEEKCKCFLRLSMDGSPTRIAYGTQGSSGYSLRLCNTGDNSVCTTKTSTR
Sequence of Plasma kallikrein (P03952 391-638 limits assumed): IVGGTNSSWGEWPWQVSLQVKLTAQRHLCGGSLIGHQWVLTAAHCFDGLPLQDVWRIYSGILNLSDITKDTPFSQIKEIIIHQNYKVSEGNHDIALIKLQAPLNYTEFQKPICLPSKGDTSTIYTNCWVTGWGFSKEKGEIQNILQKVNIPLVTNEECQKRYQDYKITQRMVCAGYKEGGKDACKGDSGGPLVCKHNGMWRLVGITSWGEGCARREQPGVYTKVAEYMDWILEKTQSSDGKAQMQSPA
Sequence of Plasminogen (P00747 97-580 limits assumed): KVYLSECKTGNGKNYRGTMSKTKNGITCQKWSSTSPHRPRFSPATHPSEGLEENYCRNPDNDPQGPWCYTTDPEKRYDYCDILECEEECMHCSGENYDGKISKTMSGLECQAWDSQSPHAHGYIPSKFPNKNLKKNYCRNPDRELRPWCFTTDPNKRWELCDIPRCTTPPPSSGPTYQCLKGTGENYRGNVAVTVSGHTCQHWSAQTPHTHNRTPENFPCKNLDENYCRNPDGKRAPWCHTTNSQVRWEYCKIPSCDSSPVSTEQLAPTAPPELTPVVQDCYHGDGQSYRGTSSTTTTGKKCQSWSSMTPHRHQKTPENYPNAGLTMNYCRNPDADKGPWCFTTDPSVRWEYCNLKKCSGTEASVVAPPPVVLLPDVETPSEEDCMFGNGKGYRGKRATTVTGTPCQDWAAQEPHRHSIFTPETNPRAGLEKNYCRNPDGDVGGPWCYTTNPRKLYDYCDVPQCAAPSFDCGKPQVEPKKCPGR
Sequence of Plasminogen (P00747 581-810 limits assumed): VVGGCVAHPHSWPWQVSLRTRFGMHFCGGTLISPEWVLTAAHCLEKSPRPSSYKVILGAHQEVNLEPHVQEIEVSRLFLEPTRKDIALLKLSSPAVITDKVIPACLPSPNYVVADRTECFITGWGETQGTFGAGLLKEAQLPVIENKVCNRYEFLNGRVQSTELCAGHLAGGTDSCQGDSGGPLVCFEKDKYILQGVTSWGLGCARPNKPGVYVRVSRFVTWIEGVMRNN
Sequence of Tissue-type plasminogen activator (P00750 whole entry): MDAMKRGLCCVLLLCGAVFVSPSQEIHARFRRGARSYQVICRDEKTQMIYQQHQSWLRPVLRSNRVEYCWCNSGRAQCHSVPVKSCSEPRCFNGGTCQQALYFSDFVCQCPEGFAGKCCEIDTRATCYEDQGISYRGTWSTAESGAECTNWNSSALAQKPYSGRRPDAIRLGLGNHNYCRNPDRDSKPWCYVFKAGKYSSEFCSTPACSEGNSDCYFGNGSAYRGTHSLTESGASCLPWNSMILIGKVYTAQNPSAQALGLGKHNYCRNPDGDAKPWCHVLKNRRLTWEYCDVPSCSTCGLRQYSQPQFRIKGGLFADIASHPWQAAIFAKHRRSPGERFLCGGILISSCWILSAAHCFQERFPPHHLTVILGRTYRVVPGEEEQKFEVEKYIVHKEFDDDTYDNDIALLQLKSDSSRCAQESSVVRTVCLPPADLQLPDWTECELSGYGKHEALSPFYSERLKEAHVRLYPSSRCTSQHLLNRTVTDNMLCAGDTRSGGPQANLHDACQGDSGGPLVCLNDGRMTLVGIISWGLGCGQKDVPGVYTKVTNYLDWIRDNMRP
Sequence of Coagulation factor XI (P03951 19-387 limits assumed): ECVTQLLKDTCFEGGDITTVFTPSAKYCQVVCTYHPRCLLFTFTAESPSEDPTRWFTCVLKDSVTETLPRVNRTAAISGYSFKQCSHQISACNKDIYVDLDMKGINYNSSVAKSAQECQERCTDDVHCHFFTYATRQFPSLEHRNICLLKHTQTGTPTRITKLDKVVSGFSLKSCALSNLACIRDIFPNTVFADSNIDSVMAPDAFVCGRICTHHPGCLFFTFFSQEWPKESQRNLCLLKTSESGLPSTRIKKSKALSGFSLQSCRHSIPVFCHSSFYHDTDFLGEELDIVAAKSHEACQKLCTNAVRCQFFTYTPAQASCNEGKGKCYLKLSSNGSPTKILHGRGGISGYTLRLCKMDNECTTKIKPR
Sequence of Coagulation factor XI (P03951 388-625 limits assumed): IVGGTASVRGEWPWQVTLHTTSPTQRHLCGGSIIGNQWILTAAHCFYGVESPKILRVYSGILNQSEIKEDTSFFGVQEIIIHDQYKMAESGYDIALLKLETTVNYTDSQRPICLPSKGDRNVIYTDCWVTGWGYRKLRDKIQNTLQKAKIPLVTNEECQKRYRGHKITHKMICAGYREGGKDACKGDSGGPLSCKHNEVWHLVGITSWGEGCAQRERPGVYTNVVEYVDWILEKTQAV
Sequence of Coagulation factor X (P00742 41-179 limits assumed): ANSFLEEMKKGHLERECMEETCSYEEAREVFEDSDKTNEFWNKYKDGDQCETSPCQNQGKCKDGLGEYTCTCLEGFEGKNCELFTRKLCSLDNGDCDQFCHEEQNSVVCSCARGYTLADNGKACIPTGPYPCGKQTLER
Sequence of Coagulation factor X (P00742 235-488 limits assumed): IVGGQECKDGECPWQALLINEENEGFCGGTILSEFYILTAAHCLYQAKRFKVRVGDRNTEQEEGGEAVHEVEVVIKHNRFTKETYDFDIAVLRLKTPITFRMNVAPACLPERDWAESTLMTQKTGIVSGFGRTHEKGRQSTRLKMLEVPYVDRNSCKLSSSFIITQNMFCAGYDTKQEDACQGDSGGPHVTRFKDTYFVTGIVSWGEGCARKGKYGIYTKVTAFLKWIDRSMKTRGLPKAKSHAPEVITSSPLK

| SMILES | IC50 (Plasma kallikrein) [µM] | IC50 (Prothrombin) [µM] | IC50 [1] [µM] | IC50 (Coagulation factor XI) [µM] | Papp at 1 µM [2] [×10⁻⁶ cm/s] | IC50 (Coagulation factor X) [µM] | Cmax [3] [ng/mL] | IC50 (Plasminogen) [µM] | bioavailability [4] [%] | half-life [5] [min] | IC50 [6] [µM] | IC50 (Coagulation factor XII) [µM] |
| --- | --- | --- | --- | --- | --- | --- | --- | --- | --- | --- | --- | --- |
| Cc1nc(N)ccc1CNC(=O)c1cnn(Cc2ccc(Cn3cccn3)cc2)c1 | 0.0024 | > 1000 | > 1000 | 106 | < 1 | > 1000 | 25 | > 1000 | 6 | 48 | 578 | > 1000 |
| Cc1cc(N)nc2c1CNC(=O)c1cnn(c1)Cc1ccc(Cn3cccn3)cc1OCC/C=C/CCO2 | 53.2 |  |  |  |  |  |  |  |  |  |  |  |
| Cc1nc(N)cc2c1CNC(=O)c1cnn(c1)Cc1ccc(Cn3cccn3)cc1OCC/C=C/CCO2 | 1.21 |  |  |  |  |  |  |  |  |  |  |  |
| Cc1nc(N)cc2c1CNC(=O)c1cnn(c1)Cc1ccc(Cn3cccn3)cc1OCCCCCCO2 | 8.31 |  |  |  |  |  |  |  |  |  |  |  |
| Cc1nc(N)cc2c1CNC(=O)c1cnn(c1)Cc1ccc(Cn3cccn3)cc1OCC/C=C\CCO2 | 1.57 |  |  |  |  |  |  |  |  |  |  |  |
| Cc1cc(N)nc2c1CNC(=O)c1cnn(c1)Cc1ccc(Cn3cccn3)cc1OCC/C=C\CCO2 | > 3000 |  |  |  |  |  |  |  |  |  |  |  |

Continued, values first:

| IC50 (Plasma kallikrein) [µM] | IC50 (Prothrombin) [µM] | IC50 [1] [µM] | IC50 (Coagulation factor XI) [µM] | Papp at 1 µM [2] [×10⁻⁶ cm/s] | IC50 (Coagulation factor X) [µM] | Cmax [3] [ng/mL] | IC50 (Plasminogen) [µM] | bioavailability [4] [%] | half-life [5] [min] | IC50 [6] [µM] | IC50 (Coagulation factor XII) [µM] | SMILES |
| --- | --- | --- | --- | --- | --- | --- | --- | --- | --- | --- | --- | --- |
| 0.0423 | > 200 | > 200 | 40.9 | < 1 | > 200 |  | > 200 |  | < 5 | > 200 | > 200 | Cc1nc(N)cc2c1CNC(=O)c1cnn(c1)Cc1ccc(Cn3cccn3)cc1OCCC/C=C\CCO2 |
| 0.0048 | > 200 | > 200 | 11.7 |  | > 200 |  | 21.4 |  | < 5 | > 200 | > 200 | Cc1nc(N)cc2c1CNC(=O)c1cnn(c1)Cc1ccc(Cn3cccn3)cc1OCCCC=CCCO2 (mixture of isomers) |
| 0.002 | > 200 | > 200 | 3.61 | < 1 | > 200 |  | > 200 |  | < 5 | > 200 | > 200 | Cc1nc(N)cc2c1CNC(=O)c1cnn(c1)Cc1ccc(Cn3cccn3)cc1OCCC/C=C/CCO2 |
| 0.153 | > 200 | > 200 | 12.7 | < 1 | > 200 |  | 9.97 |  | < 5 | > 200 | > 200 | Cc1nc(N)cc2c1CNC(=O)c1cnn(c1)Cc1ccc(Cn3cccn3)cc1OCC/C=C/CCCO2 |
